Measured values reported in PubChem BioAssay AID1963975 (Molecular Pharmacology Branch, DTP, NCI, 2024).

Tested on: 624824-186-R-J2-PDC multicell spheroids, viability
Test: Anticancer human tumor 624824-186-R-J2-PDC patient-derived colon adenocarcinoma cell line growth inhibition [PI3K]
Details: for IC50: curve of first compound; for viability, T/C: stronger effect = lower value; active = viability on the fitted dose curve at most 10% of control; inactive = the rest
Outline: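 Stroma-containing spheroids: tumor line, pooled-donor HUVEC, hMSC. Treatments: targeted agents with PI3K inhibitors. Dosing: clinically relevant, half-log spacing, 10 microM ceiling without known Cmax. Read-out: cell viability.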

[1] = second compound 0.00316 µM, first compound 0.0316 µM
[2] = second compound 0.00316 µM, first compound 0.1 µM
[3] = second compound 0.01 µM, first compound 0.0316 µM
[4] = second compound 0.01 µM, first compound 0.1 µM
[5] = second compound 0.0316 µM, first compound 0.0316 µM
[6] = second compound 0.0316 µM, first compound 0.1 µM
[7] = second compound 0.1 µM, first compound 0.0316 µM
[8] = second compound 0.1 µM, first compound 0.1 µM
[9] = second compound 0.316 µM, first compound 0.0316 µM
[10] = second compound 0.316 µM, first compound 0.1 µM
[11] = second compound 1 µM, first compound 0.0316 µM
[12] = second compound 1 µM, first compound 0.1 µM
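Note: spheroids exposed to agents for 7 days before viability read.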
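Throughout, for viability, T/C: 100% = DMSO vehicle treated spheroids.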

CC(C)n1nc(-c2ccc3oc(N)nc3c2)c2c(N)ncnc21 + COc1c(OCCCN2CCOCC2)ccc2c3n(c(=NC(=O)c4cnc(N)nc4)nc12)CCN3
0.0753 µM: IC50 (second compound 0.316 µM)
> 0.1 µM: IC50 (second compound 0.00316 µM) | IC50 (second compound 0.01 µM) | IC50 (second compound 0.0316 µM) | IC50 (second compound 0.1 µM) | IC50 (second compound 1 µM)
inactive: viability, T/C (second compound 0.00316 µM, first compound 0.000316 µM) 82.8% | viability, T/C (second compound 0.00316 µM, first compound 0.001 µM) 95.9% | viability, T/C (second compound 0.00316 µM, first compound 0.00316 µM) 82.4% | viability, T/C (second compound 0.00316 µM, first compound 0.01 µM) 99.5% | viability, T/C [1] 84% | viability, T/C [2] 70.1% | viability, T/C (second compound 0.01 µM, first compound 0.000316 µM) 104% | viability, T/C (second compound 0.01 µM, first compound 0.001 µM) 83.2% | viability, T/C (second compound 0.01 µM, first compound 0.00316 µM) 93.2% | viability, T/C (second compound 0.01 µM, first compound 0.01 µM) 86.7% | viability, T/C [3] 80.7% | viability, T/C [4] 68.9% | viability, T/C (second compound 0.0316 µM, first compound 0.000316 µM) 90.3% | viability, T/C (second compound 0.0316 µM, first compound 0.001 µM) 78.8% | viability, T/C (second compound 0.0316 µM, first compound 0.00316 µM) 81.4% | viability, T/C (second compound 0.0316 µM, first compound 0.01 µM) 69.6% | viability, T/C [5] 69.9% | viability, T/C [6] 54.5% | viability, T/C (second compound 0.1 µM, first compound 0.000316 µM) 70.1% | viability, T/C (second compound 0.1 µM, first compound 0.001 µM) 77.3% | viability, T/C (second compound 0.1 µM, first compound 0.00316 µM) 58.5% | viability, T/C (second compound 0.1 µM, first compound 0.01 µM) 57.3% | viability, T/C [7] 58.3% | viability, T/C [8] 49.7% | viability, T/C (second compound 0.316 µM, first compound 0.000316 µM) 70.6% | viability, T/C (second compound 0.316 µM, first compound 0.001 µM) 60.7% | viability, T/C (second compound 0.316 µM, first compound 0.00316 µM) 60.7% | viability, T/C (second compound 0.316 µM, first compound 0.01 µM) 59.1% | viability, T/C [9] 53.7% | viability, T/C [10] 47.8% | viability, T/C (second compound 1 µM, first compound 0.000316 µM) 64.6% | viability, T/C (second compound 1 µM, first compound 0.001 µM) 52.7% | viability, T/C (second compound 1 µM, first compound 0.00316 µM) 55% | viability, T/C (second compound 1 µM, first compound 0.01 µM) 61.2% | viability, T/C [11] 56.1% | viability, T/C [12] 52%

CC1(C)CCC(CN2CCN(c3ccc(C(=O)NS(=O)(=O)c4ccc(NCC5CCOCC5)c([N+](=O)[O-])c4)c(Oc4cnc5[nH]ccc5c4)c3)CC2)=C(c2ccc(Cl)cc2)C1 + COc1c(OCCCN2CCOCC2)ccc2c3n(c(=NC(=O)c4cnc(N)nc4)nc12)CCN3
6.81 µM: IC50 (second compound 0.1 µM)
4.7 µM: IC50 (second compound 1 µM)
> 10 µM: IC50 (second compound 0.00316 µM) | IC50 (second compound 0.01 µM) | IC50 (second compound 0.0316 µM)
inactive: viability, T/C [1] 78.7% | viability, T/C [2] 82.4% | viability, T/C (second compound 0.00316 µM, first compound 0.316 µM) 81.6% | viability, T/C (second compound 0.00316 µM, first compound 1 µM) 98% | viability, T/C (second compound 0.00316 µM, first compound 3.16 µM) 70.5% | viability, T/C (second compound 0.00316 µM, first compound 10 µM) 61% | viability, T/C [3] 99% | viability, T/C [4] 83.5% | viability, T/C (second compound 0.01 µM, first compound 0.316 µM) 83.1% | viability, T/C (second compound 0.01 µM, first compound 1 µM) 94.9% | viability, T/C (second compound 0.01 µM, first compound 3.16 µM) 78.2% | viability, T/C (second compound 0.01 µM, first compound 10 µM) 57.5% | viability, T/C [5] 84.3% | viability, T/C [6] 90.5% | viability, T/C (second compound 0.0316 µM, first compound 0.316 µM) 82.6% | viability, T/C (second compound 0.0316 µM, first compound 1 µM) 90.7% | viability, T/C (second compound 0.0316 µM, first compound 3.16 µM) 78.7% | viability, T/C (second compound 0.0316 µM, first compound 10 µM) 50.2% | viability, T/C [7] 69% | viability, T/C [8] 76.8% | viability, T/C (second compound 0.1 µM, first compound 0.316 µM) 84.8% | viability, T/C (second compound 0.1 µM, first compound 1 µM) 78.4% | viability, T/C (second compound 0.1 µM, first compound 3.16 µM) 73.1% | viability, T/C (second compound 0.1 µM, first compound 10 µM) 38.2% | viability, T/C [9] 60% | viability, T/C [10] 65.7% | viability, T/C (second compound 0.316 µM, first compound 0.316 µM) 72.1% | viability, T/C (second compound 0.316 µM, first compound 1 µM) 67.9% | viability, T/C (second compound 0.316 µM, first compound 3.16 µM) 60.5% | viability, T/C (second compound 0.316 µM, first compound 10 µM) 28.2% | viability, T/C [11] 64.7% | viability, T/C [12] 62.3% | viability, T/C (second compound 1 µM, first compound 0.316 µM) 63.2% | viability, T/C (second compound 1 µM, first compound 1 µM) 61.4% | viability, T/C (second compound 1 µM, first compound 3.16 µM) 64.7% | viability, T/C (second compound 1 µM, first compound 10 µM) 24.8%
4.68 µM: IC50 (second compound 0.316 µM)
